Among the data in PubChem BioAssay (NCI) are TGI values, retold here.

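96-well plates; 48 h exposure; 5 concentrations. Endpoints by linear interpolation between flanking doses. Not reached: highest tested concentration assigned. TGI: total growth inhibition.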

Some test systems named below: OVCAR-8 ovarian; HCC-2998 colon; NCI/ADR-RES ovarian; SNB-19 CNS; NCI-H23 lung; HT29 colon; SK-MEL-5 melanoma; CCRF-CEM leukemia; NCI-H226 lung; SF-295 CNS; M14 melanoma; TK-10 renal; SN12C renal; OVCAR-5 ovarian; A549 NSCLC; SK-MEL-2 melanoma.
What all share (experiment): NCI tumour cell line growth inhibition, 48 h

`COC(=O)c1sc(=S)sc1SCc1ccc(CSc2sc(=S)sc2C(=O)OC)cc1`: the TGI with OVCAR-8 ovarian, with HCC-2998 colon, in the assay on NCI/ADR-RES ovarian, in the assay on SNB-19 CNS, with NCI-H23 lung and in the assay on HT29 colon was more than 100 µM in each case. In addition, the TGI in the assay with SK-MEL-5 melanoma, in the assay with CCRF-CEM leukemia, in the assay with NCI-H226 lung, in the assay with SF-295 CNS, with M14 melanoma and in the assay with TK-10 renal was more than 100 µM each time. The TGI in the assay with SN12C renal, in the assay on OVCAR-5 ovarian, in the assay with A549 NSCLC and with SK-MEL-2 melanoma was more than 100 µM throughout.
On to `COC(=O)C1CN=CN1CCc1ccccc1` (centres undefined), for which the TGI in the assay on OVCAR-8 ovarian, with HCC-2998 colon, with NCI/ADR-RES ovarian, in the assay on SNB-19 CNS, with NCI-H23 lung and in the assay with HT29 colon was more than 100 µM in each case. Further, the TGI with SK-MEL-5 melanoma, in the assay with CCRF-CEM leukemia, with NCI-H226 lung, in the assay on SF-295 CNS, in the assay with M14 melanoma and in the assay with TK-10 renal was more than 100 µM in each case. Also, the TGI with OVCAR-5 ovarian, in the assay on A549 NSCLC and with SK-MEL-2 melanoma was more than 100 µM throughout.
For the compound `O=C1CSC(c2ccc([N+](=O)[O-])cc2)N1c1ccc(-n2c(-c3ccccc3)nc3ccccc3c2=O)cc1` (centres undefined), the TGI with OVCAR-8 ovarian, in the assay with HCC-2998 colon, with NCI/ADR-RES ovarian, in the assay on SNB-19 CNS, in the assay on NCI-H23 lung and with HT29 colon was more than 100 µM in each case. In addition, the TGI in the assay with SK-MEL-5 melanoma, in the assay on CCRF-CEM leukemia, in the assay on NCI-H226 lung, in the assay on SF-295 CNS, in the assay with M14 melanoma and in the assay with TK-10 renal was more than 100 µM in each case. Further, the TGI with SN12C renal, with A549 NSCLC and with SK-MEL-2 melanoma was more than 100 µM in each case.
Consider `CC1=NN(c2nc(N)nc(CSc3nc4n(c(=S)n3)CCN4)n2)C(C)(C)C1`, for which the TGI with OVCAR-8 ovarian was 47.3 µM; in the assay on HCC-2998 colon it was more than 100 µM; in the assay with NCI/ADR-RES ovarian it was more than 100 µM; in the assay on SNB-19 CNS, more than 100 µM; with NCI-H23 lung it was more than 100 µM; in the assay with HT29 colon, more than 100 µM. Also, the TGI with SK-MEL-5 melanoma is more than 100 µM; with CCRF-CEM leukemia, more than 100 µM; with NCI-H226 lung, 53.1 µM; in the assay on SF-295 CNS it was 74 µM; in the assay on M14 melanoma, more than 100 µM; with TK-10 renal, more than 100 µM. In the assay with SK-MEL-2 melanoma, this compound came in with a TGI of 62.6 µM.
`N#Cc1c(-c2ccc([N+](=O)[O-])cc2)c(C#N)c(=O)n(NS(=O)(=O)c2ccccc2)c1-c1ccccc1`: the TGI in the assay on OVCAR-8 ovarian, with HCC-2998 colon, in the assay on NCI/ADR-RES ovarian, in the assay on SNB-19 CNS, in the assay on HT29 colon and with SK-MEL-5 melanoma was more than 100 µM throughout. Also, the TGI in the assay with CCRF-CEM leukemia, in the assay with NCI-H226 lung, in the assay with SF-295 CNS, in the assay with M14 melanoma, in the assay on TK-10 renal and with SN12C renal was more than 100 µM in each case. In addition, the TGI in the assay on OVCAR-5 ovarian, in the assay with A549 NSCLC and in the assay with SK-MEL-2 melanoma was more than 100 µM in each case.
On to `O=c1ccn([C@@H]2C[C@@H]2CO)c(=O)[nH]1`, for which the TGI with OVCAR-8 ovarian, with HCC-2998 colon, in the assay with NCI/ADR-RES ovarian, with SNB-19 CNS, with NCI-H23 lung and in the assay on HT29 colon was more than 100 µM in each case. Besides, the TGI with SK-MEL-5 melanoma, in the assay on CCRF-CEM leukemia, in the assay with NCI-H226 lung, with M14 melanoma, in the assay on TK-10 renal and in the assay on SN12C renal was more than 100 µM throughout. The TGI in the assay on OVCAR-5 ovarian, with A549 NSCLC and in the assay on SK-MEL-2 melanoma was more than 100 µM each time.
For `O=C(NCCNCCCNC(=O)c1cc(-c2ccccc2)nc2ccccc12)c1cccc(O)c1O`, the TGI in the assay on HCC-2998 colon is 17.4 µM; in the assay with NCI/ADR-RES ovarian, more than 100 µM; with SNB-19 CNS, 11.8 µM; in the assay on NCI-H23 lung, 37.8 µM; with HT29 colon, 22.2 µM; in the assay with SK-MEL-5 melanoma, 4.09 µM. Also, the TGI in the assay on CCRF-CEM leukemia is more than 100 µM; with NCI-H226 lung it was 36.3 µM; with SF-295 CNS, 28.7 µM; with M14 melanoma, 10.4 µM; in the assay with TK-10 renal, 64.4 µM; in the assay with SN12C renal, 52.6 µM. Further, the figures for the TGI in the assay on OVCAR-5 ovarian, in the assay on A549 NSCLC and in the assay on SK-MEL-2 melanoma were 13.9 µM, more than 100 µM and 15.1 µM, respectively.
With `N#CC(=C1CCN(CCCC(=O)c2ccc(F)cc2)CC1)c1ccccc1`, the TGI in the assay with OVCAR-8 ovarian, with HCC-2998 colon, in the assay with NCI/ADR-RES ovarian, in the assay on SNB-19 CNS, in the assay on NCI-H23 lung and in the assay with HT29 colon was more than 100 µM each time. Further, the TGI in the assay with SK-MEL-5 melanoma, in the assay on CCRF-CEM leukemia, in the assay on NCI-H226 lung, in the assay with SF-295 CNS, in the assay on TK-10 renal and with SN12C renal was more than 100 µM each time. The TGI in the assay on OVCAR-5 ovarian, in the assay on A549 NSCLC and in the assay with SK-MEL-2 melanoma was more than 100 µM in each case.
Turning to `COc1cc(CO)c(CC(=O)NCCCc2ccccc2)cc1OC`, the TGI in the assay on OVCAR-8 ovarian, in the assay with HCC-2998 colon, in the assay on NCI/ADR-RES ovarian, in the assay with SNB-19 CNS, in the assay on NCI-H23 lung and in the assay with HT29 colon was more than 100 µM each time. The TGI in the assay on SK-MEL-5 melanoma, in the assay on CCRF-CEM leukemia, in the assay on NCI-H226 lung, in the assay on M14 melanoma, in the assay on TK-10 renal and in the assay on SN12C renal was more than 100 µM each time. In addition, the TGI in the assay with OVCAR-5 ovarian, in the assay on A549 NSCLC and with SK-MEL-2 melanoma was more than 100 µM throughout.
